Data published in US20140051577A1, “SUBSTITUTED 5-(BICYCLO[4.1.0]HEPT-3-EN-2-YL)PENTA-2,4-DIENES AND 5-(BICYCLO[4.1.0]HEPT-3-EN-2-YL)PENT-2-ENE-4-INES AS ACTIVE AGENTS AGAINST ABIOTIC STRESSES IN PLANTS” (priority 2011, published 2014).

Tested on: Brassica napus
Assay: Drought stress test on crop plants in greenhouse, spray application, efficacy vs untreated stressed control
Assay type: in vivo
Details: dosage 25 g/ha, mean of three results
Experimental: Seeds of monocotyledonous and dicotyledonous crop plants were laid out in sandy loam in wood-fiber pots, covered with soil and cultivated in a greenhouse under good growth conditions. The test plants were treated at the early leaf stage (BBCH10-BBCH13). To ensure uniform water supply before commencement of stress, the potted plants were supplied with the maximum amount of water immediately beforehand by dam irrigation and, after application, transferred in plastic inserts in order to prevent subsequent, excessively rapid drying. The inventive compounds, formulated in the form of wettable powders (WP), wettable granules (WG), suspension concentrates (SC) or emulsion concentrates (EC), were sprayed onto the green parts of the plants as an aqueous suspension at an equivalent water application rate of 600 l/ha with addition of 0.2% wetting agent (agrotin). Substance application is followed immediately by stress treatment of the plants (cold or drought stress). […]
After the recovery phase had ended, the intensities of damage were rated in visual comparison to untreated, unstressed controls of the same age (in the case of drought stress) or the same growth stage (in the case of cold stress). The intensity of damage was first assessed as a percentage (100%=plants have died, 0%=like control plants). […]

## CCOC(=O)/C=C(/C)C#CC1(O)C(C)=CC(=O)C2CC21C (centres unmarked) [I.1-394, Ethyl (2Z)-5-(2-hydroxy-1,3-dimethyl-5-oxobicyclo[4.1.0]hept-3-en-2-yl)-3-methylpent-2-en-4-ynoate]
BRSNS as printed
  EF (BRSNS): efficacy, percentage reduction in the intensity of damage (second table headed TABLE A-1): >5%
Brassica napus
  EF (BRSNS): efficacy, percentage reduction in the intensity of damage: >5%
